PMC10564737, “Structure-based design of a phosphotyrosine-masked covalent ligand targeting the E3 ligase SOCS2” (Nature Communications, 2023)
Where two headings read alike, the source gives them in different places.

Tests used:
SOCS2 = biological target: T1, SOCS2 (Homo sapiens, UniProt O14508); test: SOCS2 pulldown with biotinylated GHR_pY595 peptide from K562 cell lysates preincubated with compound; type: biochemical
T1 construct: endogenous SOCS2 from K562 lysates; endogenous in cells; host or cells: K562
T1 sequence (O14508 1-198): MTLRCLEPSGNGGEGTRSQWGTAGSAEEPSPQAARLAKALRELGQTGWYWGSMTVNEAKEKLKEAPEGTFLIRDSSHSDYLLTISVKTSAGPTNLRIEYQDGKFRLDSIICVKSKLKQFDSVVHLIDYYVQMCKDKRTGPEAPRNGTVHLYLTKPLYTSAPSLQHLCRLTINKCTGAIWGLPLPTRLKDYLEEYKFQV
Protocol: Pulldown of cellular SOCS2 was abrogated when K562 cells were pre-treated for 6 h with MN714 prior to cell lysis, further evidencing the inhibitor cell permeability and specific target engagement (Fig. 6c).
K562 cells were treated with either DMSO or 10 µM MN714 for 6 h before being lysed. For experiments with MN551, DMSO-treated lysate was used. DMSO-treated K562 lysate (1 mg/ml) was pre-cleared using control agarose beads (Pierce Control Agarose Resin, 26150) which were washed thrice using 50 mM Tris pH 7.4, 150 mM NaCl buffer. […] Unbound peptide was washed off through 3× cycles of buffer wash and spin. Beads were resuspended to a total volume of 100 µl per IP sample. 100 µl beads with immobilized peptides was added to the MN551 lysate tubes. Samples were incubated for 40 min at room temperature. Samples were spun and unbound supernatant was removed. Beads were washed 3× with 0.05% NP40, 50 mM Tris pH 7.4, 150 mM NaCl buffer before being resuspended in 35 µl 1× LDS. Samples were heated for 10 min at 95 °C after which the elute was transferred to a fresh tube. 20 µl of each sample was analyzed by Western Blot (4-12% Bis-Tris gel 180 V, 60 mins) before blotting for SOCS2 (ab109245, 1:1000 dilution) overnight at 4 °C. Uncropped blot images collected with ChemiDoc Touch imaging system (BioRad) operated by Image Lab (v2.4.0.03) and antibody validation provided in Source Data. […]

SOCS2 (SBC2) = biological target: T2, SOCS2 (SBC2) (Homo sapiens, UniProt O14508); test: Intact ESI-MS of recombinant protein, covalent modification; type: biochemical; conditions: SOCS2 WT + MN551 (1:1, 40 µM)
T2 construct: SOCS2 (amino acids 32–198); His6 (N, cleaved yes); made in house; host or cells: E. coli BL21(DE3)

K562 cells [1] = test: In-cell time-resolved 19F-NMR of prodrug unmasking; type: in vitro ADME; conditions: K562 cell suspension, 500 µM, 37 °C
Description: (§1) Although, with the live-cell CETSA setup we could rank the prodrugs for overall potency, we cannot decouple the individual contributions of cellular permeability and prodrug unmasking rate. To understand the rate of unmasking inside the live cells, we developed an in-cell time-resolved ^19F-NMR to monitor the rate of POM group unmasking (Fig. 5). ^19F-NMR is uniquely suited for this task due to the high receptivity of ^19F, low background in biological samples, and remarkable sensitivity of ^19F chemical shifts to their chemical environment[43],[44]. The latter means that even the distant fluorine of MN551 could act as a reporter for the presence of the masking group on the phosphotyrosine moiety. […] While the downfield peak starts off with higher intensity, it loses intensity quickly and within an hour is overtaken by the growing upfield peak. Within 3 h the downfield peak completely disappears and only the upfield peak is observed. […]
(§2) K562 cells were maintained in IMDM media supplemented with 10% FBS. […] To confirm the identity of the observed species, the lysate was sequentially spiked with 500 µM MN551 and prodrug and measured again. […] All spectra were processed and analyzed using Topspin 4.1.1.

[2] = In-cell time-resolved 19F-NMR of prodrug unmasking; type: in vitro ADME; conditions: human, K562 cell suspension (65% v/v cell content), 37 °C, read-out: half-life time of prodrug unmasking in cells
Description: as §1, §2

K562 cells [3] = test: cells; type: cell-based
Protocol: Supplementary Figure 10: GSH kinetic study of compound MN551 in GSH stability assay. A and B.
A plot of unmodified MN551 v/s time. The starting concentrations of MN551 were 1 and 10 µM in A and B respectively. C. Reactivity of MN551 measured against Afatinib and Ibrutinib
Supplementary Figure 11: Cell viability assay to assess cytotoxicity of MN714. (EC50 reported as mean±SEM, technical replicates=3).
(1 picture or pasted object on this page, not shown here)

T2 sequence (Q15369 17-112, one chain of several, further chain): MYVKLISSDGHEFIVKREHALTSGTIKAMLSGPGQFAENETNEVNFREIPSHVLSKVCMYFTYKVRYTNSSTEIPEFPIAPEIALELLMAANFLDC
T2 sequence (Q15370 1-104, one chain of several, further chain): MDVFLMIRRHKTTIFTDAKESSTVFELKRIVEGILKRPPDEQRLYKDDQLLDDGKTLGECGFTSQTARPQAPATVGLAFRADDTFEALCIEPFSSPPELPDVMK

SMILES	IC50 (SOCS2; K562 cell lysates, mean ± SEM, technical replicates = 2, read-out: IC50 of reduction of SOCS2 pulled down with biotinylated GHR pY595)	IC50 (SOCS2; K562 lysates, version shown in the peer review file, read-out: apparent IC50 of blockade of SOCS2 pull-down)	% modified (SOCS2 (SBC2); t = 0 min)	% modified (SOCS2 (SBC2); t = 5 min)	% modified (SOCS2 (SBC2); t = 10 min)	% modified (SOCS2 (SBC2); t = 20 min)	% modified (SOCS2 (SBC2); t = 40 min)	% modified (SOCS2 (SBC2); t = 60 min)	% modified (SOCS2 (SBC2); t = 90 min)	% modified (SOCS2 (SBC2); t = 120 min)	time to complete disappearance of the prodrug (downfield) peak (K562 cells [1])	half-life at 500 µM [2]	EC50 (K562 cells [3]; Homo sapiens, K562 24hrs, read-out: cell viability EC50)	concentration up to which no significant cytotoxicity was observed (K562 cells [3]; K562 cells)
O=C(CCl)Nc1cccc(CNC(=O)[C@H](Cc2ccc(OP(=O)(O)O)cc2)NC(=O)Cc2ccc(F)cc2)c1 [MN551]	5.9 ± 2.6 µM	9 µM	0.0%	12.6%	18.9%	41.4%	73.7%	88.0%	100.0%	100.0%				
CC(C)(C)C(=O)OCOP(=O)(OCOC(=O)C(C)(C)C)Oc1ccc(C[C@H](NC(=O)Cc2ccc(F)cc2)C(=O)NCc2cccc(NC(=O)CCl)c2)cc1 [MN714]											≤ 3 h	1 to 1.5 h	11.8 µM	3000 to 10000 nM
